According to patent US9493506B2 (Enanta Pharmaceuticals, Inc., priority 2010, dated 2016):

Legend:
Assay type in all cases: cell-based, hepatitis C virus (genotype 1a-H77)
[1] = system: HCV replicon with a D168E mutation in a 1a-H77 background; test: transient replicon assay, D168E mutation in 1a-H77 background; conditions: Hepatitis C virus, read-out: EC50 in a transient replicon assay with a D168E mutation in a 1a-H77 background
Experimental: (§1) Replicon cell lines can be maintained in Dulbecco's modified Eagles medium (DMEM) containing 100 IU/ml penicillin, […] streptomycin (Invitrogen), […] G418 (Invitrogen) and 10% (v/v) fetal bovine serum (FBS). Replicon-containing cells can be seeded into 96 well plates at a density of 5000 cells per well in 100 μl DMEM containing 5% FBS. The next day, the compound can be initially diluted in dimethyl sulfoxide (DMSO) to generate a 200× stock of the inhibitor in a series of 8 half-log dilutions. The dilution series can then be diluted 100-fold in the medium containing 5% FBS. One hundred microliters of medium with the inhibitor can be added to each well of the overnight cell culture plate already containing 100 μl of DMEM with 5% FBS. In assays where the protein binding effect on inhibitor potency is assessed, the medium from the overnight cell culture plates can be replaced with 200 μl DMEM containing 40% human plasma (Innovative Research) plus 5% FBS as well as compound. The cells can be grown for 4 days in tissue culture incubators. The inhibitory effects of compounds against the replicons can be determined by measuring either the level of luciferase or HCV RNA. The luciferase assay can be conducted using a Luciferase Assay System kit (Promega) following the manufacturer's instructions. Briefly, the cell culture medium is removed and wells are washed with 200 μl of phosphate-buffered saline. To each well Passive Lysis buffer (Promega, Wis.) is added and the plates are incubated for 30 min with rocking to lyse the cells. Luciferin solution (50 μl, Promega) is added, and luciferase activity is measured with a Victor II luminometer (Perkin-Elmer). To determine HCV RNA levels, RNA extractions can be performed using the CellsDirect kit (Invitrogen), and the HCV RNA copy number can be measured using the SuperScript III Platinum One-Step qRT-PCR system (Invitrogen) and primers specific to the HCV 5′ nontranslated region. Cytotoxicity can be determined by the 3-[4,5-dimethylhiazol-2-yl]-2,5-diphenyltetrazolium bromide (MTT) colorimetric assay as follows. Replicon cells is plated in 96-well plates (4000 cells per well), the next day compound dilutions are added as in the activity assay, and the cells are grown in the presence of the inhibitors for 4 days. The MTT solution is diluted in DMEM containing 5% FBS and 60 μl of the solution is added to the cells. After 4 hrs, the cells are solubilized by the addition of 30 […]μl SDS (20% in 0.02 N HCl). The plates are incubated overnight and the optical density can be measured at 570 nm. To determine compounds' EC50 and TD50, luciferase, RNA inhibition and MTT data can be analyzed using the GraphPad Prism 4 software (equation: sigmoidal dose-response—variable slope).
(§2) The 1a-H77 replicon for transient assays further differs from the replicon in the stable cell line in that it contains NS2 through NS5B in the second cistron. The 1b-N strain replicon contains NS3 through NS5B in the second cistron, with adaptive mutations E1202G in NS3 and S2204I in NS5A. Mutagenesis can be performed using the Stratagene QuikChange XL II site-directed mutagenesis kit. Mutants' sequences can be confirmed, plasmids can be linearized with Xba I restriction enzyme and used as template for in vitro transcription reactions to make mutant replicon RNA for transient transfections. In vitro transcription can be performed with the T7 Megascript kit (Ambion).
(§3) Transient replicon transfections can be performed essentially as described by Mo et al. (Antimicrob Agents Chemother (2005) 49(10):4305-4314) with slight modifications. Fifteen micrograms of template RNA can be used to electroporate 3×10^6 cells in a 200 μl volume in a 0.2 cm cuvette. The cells used for transient transfections can be Huh7 cells obtained by curing replicon-containing cells with IFN (Mo et al., supra). Electroporation can be done with a Gene Pulser II (Bio-Rad, CA) at 480V and 25 μF, using two manual pulses. […]

[2] = system: HCV replicon with a D168V mutation in a 1a-H77 background; test: transient replicon assay, D168V mutation in 1a-H77 background; conditions: Hepatitis C virus, read-out: EC50 in a transient replicon assay with a D168V mutation in a 1a-H77 background
Experimental: as §1, §2, §3

[3] = system: HCV replicon with a R155K mutation in a 1a-H77 background; test: transient replicon assay, R155K mutation in 1a-H77 background; conditions: Hepatitis C virus, read-out: EC50 in a transient replicon assay with a R155K mutation in a 1a-H77 background
Experimental: as §1, §2, §3

| SMILES | EC50 [1] | EC50 [2] | EC50 [3] |
| --- | --- | --- | --- |
| CC(C)(C)OC(=O)N[C@H]1CCCCC/C=C\[C@@H]2C[C@@]2(C(=O)NS(=O)(=O)C2CC2)NC(=O)[C@@H]2C[C@@H](Oc3nc4ccccc4nc3C(C)(F)F)CN2C1=O [Example 1, tert-butyl (2R,6S,13aS,14aR,16aS,Z)-14a-(cyclopropylsulfonylcarbamoyl)-2-(3-(1,1-difluoroethyl)quinoxalin-2-yloxy)-5,16-dioxo-1,2,3,5,6,7,8,9,10,11,13a,14,14a,15,16,16a-hexadecahydrocyclopropa[e]pyrrolo[1,2-a][1,4]diazacyclopentadecin-6-ylcarbamate] | 3 to 20 nM | 50 to 250 nM | < 1 nM |
| CC(F)(F)c1nc2ccccc2nc1O[C@@H]1C[C@H]2C(=O)N[C@]3(C(=O)NS(=O)(=O)C4CC4)C[C@H]3/C=C\CCCCC[C@H](NC(=O)c3ccon3)C(=O)N2C1 [Example 3, N-((2R,6S,13aS,14aR,16aS,Z)-14a-(cyclopropylsulfonylcarbamoyl)-2-(3-(1,1-difluoroethyl)quinoxalin-2-yloxy)-5,16-dioxo-1,2,3,5,6,7,8,9,10,11,13a,14,14a,15,16,16a-hexadecahydrocyclopropa[e]pyrrolo[1,2-a][1,4]diazacyclopentadecin-6-yl)isoxazole-3-carboxamide] | < 3 nM | 50 to 250 nM | < 1 nM |
| CC(C)(C)C(=O)N[C@H]1CCCCC/C=C\[C@@H]2C[C@@]2(C(=O)NS(=O)(=O)C2CC2)NC(=O)[C@@H]2C[C@@H](Oc3nc4ccccc4nc3C(C)(F)F)CN2C1=O [Example 4, (2R,6S,13aS,14aR,16aS,Z)—N-(cyclopropylsulfonyl)-2-(3-(1,1-difluoroethyl)quinoxalin-2-yloxy)-5,16-dioxo-6-pivalamido-1,2,3,5,6,7,8,9,10,11,13a,14,14a,15,16,16a-hexadecahydrocyclopropa[e]pyrrolo[1,2-a][1,4]diazacyclopentadecine-14a-carboxamide] | 3 to 20 nM | 50 to 250 nM | 1 to 10 nM |
| CC(F)(F)c1nc2ccccc2nc1O[C@@H]1C[C@H]2C(=O)N[C@]3(C(=O)NS(=O)(=O)C4(C)CC4)C[C@H]3/C=C\CCCCC[C@H](NC(=O)c3ccon3)C(=O)N2C1 [Example 5, N-((2R,6S,13aS,14aR,16aS,Z)-2-(3-(1,1-difluoroethyl)quinoxalin-2-yloxy)-14a-(1-methylcyclopropylsulfonylcarbamoyl)-5,16-dioxo-1,2,3,5,6,7,8,9,10,11,13a,14,14a,15,16,16a-hexadecahydrocyclopropa[e]pyrrolo[1,2-a][1,4]diazacyclopentadecin-6-yl)isoxazole-3-carboxamide] | < 3 nM | < 25 nM | < 1 nM |
| Cc1onc(C(=O)N[C@H]2CCCCC/C=C\[C@@H]3C[C@@]3(C(=O)NS(=O)(=O)C3CC3)NC(=O)[C@@H]3C[C@@H](Oc4nc5ccccc5nc4C(C)(F)F)CN3C2=O)c1C [Example 6, N-((2R,6S,13aS,14aR,16aS,Z)-14a-(cyclopropylsulfonylcarbamoyl)-2-(3-(1,1-difluoroethyl)quinoxalin-2-yloxy)-5,16-dioxo-1,2,3,5,6,7,8,9,10,11,13a,14,14a,15,16,16a-hexadecahydrocyclopropa[e]pyrrolo[1,2-a][1,4]diazacyclopentadecin-6-yl)-4,5-dimethylisoxazole-3-carboxamide] | < 3 nM | 50 to 250 nM | 1 to 10 nM |
| Cc1onc(C(=O)N[C@H]2CCCCC/C=C\[C@@H]3C[C@@]3(C(=O)NS(=O)(=O)C3(C)CC3)NC(=O)[C@@H]3C[C@@H](Oc4nc5ccccc5nc4C(C)(F)F)CN3C2=O)c1C [Example 7, N-((2R,6S,13aS,14aR,16aS,Z)-2-(3-(1,1-difluoroethyl)quinoxalin-2-yloxy)-14a-(1-methylcyclopropylsulfonylcarbamoyl)-5,16-dioxo-1,2,3,5,6,7,8,9,10,11,13a,14,14a,15,16,16a-hexadecahydrocyclopropa[e]pyrrolo[1,2-a][1,4]diazacyclopentadecin-6-yl)-4,5-dimethylisoxazole-3-carboxamide] | < 3 nM | 25 to 50 nM | 1 to 10 nM |
